BigSolDB 2.1

Nc1ccc(S(=O)(=O)Nc2ncccn2)cc1
solubility (mole fraction)
Settings	in acetone	in chloroform	in ethanol	in isopropanol	in methanol	in n-propanol
294.15 K	5.96e-05	5.47e-06	3.8e-05	6.53e-05	0.000265	9.66e-05
298.15 K	7.34e-05	9.26e-06	4.8e-05	8.18e-05	0.000283	0.000124
303.15 K	9.17e-05	1.54e-05	6.01e-05	0.000103	0.000311	0.000164
308.15 K	0.000106	2.15e-05	7e-05	0.000123	0.000343	0.000208
313.15 K	0.000115	2.57e-05	7.56e-05	0.000134	0.000377	0.000245
318.15 K	0.00012	2.71e-05	7.68e-05	0.000143	0.000409	0.000279
